From patent publication EP1025114B1, “3'-N-MODIFIED 6-O-SUBSTITUTED ERYTHROMYCIN KETOLIDE DERIVATIVES HAVING ANTIBACTERIAL ACTIVITY” (priority 1997, dated 1999)

Columns and labels:
Assay in all cases: In vitro antibacterial activity, agar dilution MIC
Assay type in all cases: cell-based
[1] = tested on: Streptococcus agalactiae CMX 508; conditions: Streptococcus agalactiae CMX 508 (organism code KK); BHI agar, 35-37 °C, 20 to 24 hours; unit assumed
Summary of the method: (§1)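 Agar dilution on BHI agar: twelve successive compound dilutions, inoculated by Steers replicator with 1:100 dilutions (1:10 for slow growers such as Streptococcus). MIC is lowest concentration giving no growth, slight haze or sparse colonies versus drug-free control, judged visually; same-class reference antibiotic run alongside.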

[2] = tested on: Enterococcus faecium ATCC 8043; conditions: Enterococcus faecium ATCC 8043 (organism code II); BHI agar, 35-37 °C, 20 to 24 hours; unit assumed
Summary of the method: as §1

[3] = tested on: Staphylococcus aureus A5177; conditions: Staphylococcus aureus A5177 (organism code BB); BHI agar, 35-37 °C, 20 to 24 hours; unit assumed
Summary of the method: as §1

[4] = tested on: Staphylococcus aureus A-5278; conditions: Staphylococcus aureus A-5278 (organism code CC); BHI agar, 35-37 °C, 20 to 24 hours; unit assumed
Summary of the method: as §1

[5] = tested on: Staphylococcus aureus CMX 553; conditions: Staphylococcus aureus CMX 553 (organism code FF); BHI agar, 35-37 °C, 20 to 24 hours; unit assumed
Summary of the method: as §1

[6] = tested on: Streptococcus pyogenes PIU 2548; conditions: Streptococcus pyogenes PIU 2548 (organism code NN); BHI agar, 35-37 °C, 20 to 24 hours; unit assumed
Summary of the method: as §1

[7] = tested on: Staphylococcus aureus NCTC10649M; conditions: Staphylococcus aureus NCTC10649M (organism code EE); BHI agar, 35-37 °C, 20 to 24 hours; unit assumed
Summary of the method: as §1

[8] = tested on: Haemophilis Influenzae DILL AMP R; conditions: Haemophilis Influenzae DILL AMP R (organism code WW); BHI agar, 35-37 °C, 20 to 24 hours; unit assumed
Summary of the method: as §1

[9] = tested on: Streptococcus Pheumoniae 5979; conditions: Streptococcus Pheumoniae 5979 (organism code ZZ); BHI agar, 35-37 °C, 20 to 24 hours; unit assumed
Summary of the method: as §1

Escherichia coli DC-2 = Escherichia coli DC-2 (organism code SS); BHI agar, 35-37 °C, 20 to 24 hours; unit assumed
Summary of the method: as §1

[10] = tested on: Staphylococcus aureus CMX 642A; conditions: Staphylococcus aureus CMX 642A (organism code DD); BHI agar, 35-37 °C, 20 to 24 hours; unit assumed
Summary of the method: as §1

[11] = tested on: Staphylococcus aureus ATCC 6538P; conditions: Staphylococcus aureus ATCC 6538P (organism code AA); BHI agar, 35-37 °C, 20 to 24 hours; unit assumed
Summary of the method: as §1

Escherichia coli JUHL = Escherichia coli JUHL (organism code QQ); BHI agar, 35-37 °C, 20 to 24 hours; unit assumed
Summary of the method: as §1

[12] = tested on: Staphylococcus aureus 1775; conditions: Staphylococcus aureus 1775 (organism code GG); BHI agar, 35-37 °C, 20 to 24 hours; unit assumed
Summary of the method: as §1

[13] = tested on: Streptococcus Pheumoniae GYR 1171; conditions: Streptococcus Pheumoniae GYR 1171 (organism code YY); BHI agar, 35-37 °C, 20 to 24 hours; unit assumed
Summary of the method: as §1

[14] = tested on: Staphylococcus epidermidis 3519; conditions: Staphylococcus epidermidis 3519 (organism code HH); BHI agar, 35-37 °C, 20 to 24 hours; unit assumed
Summary of the method: as §1

[15] = tested on: Micrococcus luteus ATCC 4698; conditions: Micrococcus luteus ATCC 4698 (organism code PP); BHI agar, 35-37 °C, 20 to 24 hours; unit assumed
Summary of the method: as §1

[16] = tested on: Streptococcus bovis A-5169; conditions: Streptococcus bovis A-5169 (organism code JJ); BHI agar, 35-37 °C, 20 to 24 hours; unit assumed
Summary of the method: as §1

[17] = tested on: Streptococcus Pheumoniae 5649; conditions: Streptococcus Pheumoniae 5649 (organism code ZZA); BHI agar, 35-37 °C, 20 to 24 hours; unit assumed
Summary of the method: as §1

[18] = tested on: Streptococcus pyogenes 930; conditions: Streptococcus pyogenes 930 (organism code MM); BHI agar, 35-37 °C, 20 to 24 hours; unit assumed
Summary of the method: as §1

[19] = tested on: Streptococcus Pheumoniae ATCC6303; conditions: Streptococcus Pheumoniae ATCC6303 (organism code XX); BHI agar, 35-37 °C, 20 to 24 hours; unit assumed
Summary of the method: as §1

[20] = tested on: Micrococcus luteus ATCC 9341; conditions: Micrococcus luteus ATCC 9341 (organism code OO); BHI agar, 35-37 °C, 20 to 24 hours; unit assumed
Summary of the method: as §1

[21] = tested on: Mycobacterium smegmatis ATCC 114; conditions: Mycobacterium smegmatis ATCC 114 (organism code UU); BHI agar, 35-37 °C, 20 to 24 hours; unit assumed
Summary of the method: as §1

Escherichia coli SS = Escherichia coli SS (organism code RR); BHI agar, 35-37 °C, 20 to 24 hours; unit assumed
Summary of the method: as §1

[22] = tested on: Nocardia Asteroides ATCC9970; conditions: Nocardia Asteroides ATCC9970 (organism code VV); BHI agar, 35-37 °C, 20 to 24 hours; unit assumed
Summary of the method: as §1

Candida albicans CCH 442 = Candida albicans CCH 442 (organism code TT); BHI agar, 35-37 °C, 20 to 24 hours; unit assumed
Summary of the method: as §1

[23] = tested on: Streptococcus pyogenes EES61; conditions: Streptococcus pyogenes EES61 (organism code LL); BHI agar, 35-37 °C, 20 to 24 hours; unit assumed
Summary of the method: as §1

Row | SMILES | MIC [1] [µg/mL] | MIC [2] [µg/mL] | MIC [3] [µg/mL] | MIC [4] [µg/mL] | MIC [5] [µg/mL] | MIC [6] [µg/mL] | MIC [7] [µg/mL] | MIC [8] [µg/mL] | MIC [9] [µg/mL] | MIC (Escherichia coli DC-2) [µg/mL] | MIC [10] [µg/mL] | MIC [11] [µg/mL] | MIC (Escherichia coli JUHL) [µg/mL] | MIC [12] [µg/mL] | MIC [13] [µg/mL] | MIC [14] [µg/mL] | MIC [15] [µg/mL] | MIC [16] [µg/mL] | MIC [17] [µg/mL] | MIC [18] [µg/mL] | also measured
1 | CC[C@H]1OC(=O)[C@H](C)C(=O)[C@H](C)[C@@H](O[C@@H]2O[C@H](C)C[C@H](N(C)CC#N)[C@H]2O)[C@](C)(OCC=Cc2cnc3ccccc3c2)C[C@@H](C)C(=O)[C@H](C)[C@H]2NC(=O)O[C@@]21C [Example 9, Compound of Formula (II); R is -CH2CH=CH-(3-quinolyl), R^p is H, W is absent, R^w is H, R^1 is CH2-CN, R^2 is CH3-] | 0.01 | 0.1 | 0.1 | > 100 | 0.05 | 0.39 | 0.1 | 8 | 128 | > 100 | 0.1 | 0.1 | > 100 | > 100 | 0.03 | 0.2 | 0.2 | 0.01 | 0.5 | 12.5 | MIC [19]: 0.03 µg/mL; MIC [20]: 0.02 µg/mL; MIC [21]: 12.5 µg/mL; MIC (Escherichia coli SS): 0.2 µg/mL; MIC [22]: 0.78 µg/mL; MIC (Candida albicans CCH 442): > 100 µg/mL; MIC [23]: 0.01 µg/mL
2 | CC[C@H]1OC(=O)[C@H](C)C(=O)[C@H](C)[C@@H](O[C@@H]2O[C@H](C)C[C@H](N(C)CC3CC3)[C@H]2O)[C@](C)(OCC=Cc2cnc3ccccc3c2)C[C@@H](C)C(=O)[C@H](C)[C@H]2NC(=O)O[C@@]21C [Example 15, Compound of Formula (II); R is -CH2CH=CH-(3-quinolyl), R^p is H, W is absent, R^w is H, R^1 is CH2-(cyclo-C3H5), R^2 is CH3] | 0.05 | 0.05 | 0.39 | > 100 | 0.39 | 0.1 | 0.39 | 8 | > 128 | > 100 | 0.39 | 0.39 | > 100 | > 100 | 0.03 | 0.39 | 0.39 | 0.02 | 0.25 | 25 | MIC [19]: 0.03 µg/mL; MIC [20]: 0.05 µg/mL; MIC [21]: 0.78 µg/mL; MIC (Escherichia coli SS): 0.2 µg/mL; MIC [22]: 0.2 µg/mL; MIC (Candida albicans CCH 442): > 100 µg/mL; MIC [23]: 0.02 µg/mL
3 | CCCN(C)[C@H]1C[C@@H](C)O[C@@H](O[C@@H]2[C@@H](C)C(=O)[C@@H](C)C(=O)O[C@H](CC)[C@@]3(C)OC(=O)N[C@@H]3[C@@H](C)C(=O)[C@H](C)C[C@@]2(C)OCC=Cc2cnc3ccccc3c2)[C@@H]1O [Example 16, Compound of Formula (II); R is -CH2CH=CH-(3-quinolyl), R^p is H, W is absent, R^w is H, R^1 is CH2CH2CH3, R^2 is CH3] | 0.01 | 0.05 | 0.39 | > 100 | 0.39 | 0.1 | 0.39 | 8 | 128 | > 100 | 0.39 | 0.39 | > 100 | > 100 | 0.03 | 0.39 | 0.39 | 0.01 | 0.5 | 12.5 | MIC [19]: 0.03 µg/mL; MIC [20]: 0.02 µg/mL; MIC [21]: 1.56 µg/mL; MIC (Escherichia coli SS): 0.2 µg/mL; MIC [22]: 0.1 µg/mL; MIC (Candida albicans CCH 442): > 100 µg/mL; MIC [23]: 0.01 µg/mL
4 | CC[C@H]1OC(=O)[C@H](C)C(=O)[C@H](C)[C@@H](O[C@@H]2O[C@H](C)C[C@H](N(C)CC=Cc3ccccc3)[C@H]2O)[C@](C)(OCC=Cc2cnc3ccccc3c2)C[C@@H](C)C(=O)[C@H](C)[C@H]2NC(=O)O[C@@]21C [Example 17, Compound of Formula (II); R is -CH2CH=CH-(3-quinolyl), R^p is H, W is absent, R^w is H, R^1 is CH2CH=CHC6H5, R^2 is CH3] | 0.05 | 0.1 | 0.39 | > 100 | 0.39 | 0.39 | 0.78 | 8 | 16 | > 100 | 0.39 | 0.39 | > 100 | > 100 | ≤ 0.015 | 0.39 | 0.39 | 0.05 | 0.25 | 12.5 | MIC [19]: ≤ 0.015 µg/mL; MIC [20]: 0.05 µg/mL; MIC [21]: 0.39 µg/mL; MIC (Escherichia coli SS): 1.56 µg/mL; MIC [22]: 0.2 µg/mL; MIC (Candida albicans CCH 442): > 100 µg/mL; MIC [23]: 0.2 µg/mL
5 | C=C(CN(C)[C@H]1C[C@@H](C)O[C@@H](O[C@@H]2[C@@H](C)C(=O)[C@@H](C)C(=O)O[C@H](CC)[C@@]3(C)OC(=O)N[C@@H]3[C@@H](C)C(=O)[C@H](C)C[C@@]2(C)OCC=Cc2cnc3ccccc3c2)[C@@H]1O)C(=O)OC [Example 18, Compound of Formula (II); R is -CH2CH=CH-(3-quinolyl), R^p is H, W is absent, R^w is H, R^1 is CH2C(=CH2)C(O)OCH3, R^2 is CH3] | 0.02 | 0.1 | 0.39 | > 100 | 0.39 | 0.39 | 0.39 | 16 | 128 | > 100 | 0.39 | 0.39 | > 100 | > 100 | ≤ 0.004 | 0.39 | 0.39 | 0.02 | 0.5 | 25 | MIC [19]: ≤ 0.004 µg/mL; MIC [20]: 0.02 µg/mL; MIC [21]: 6.2 µg/mL; MIC (Escherichia coli SS): 0.78 µg/mL; MIC [22]: 0.2 µg/mL; MIC (Candida albicans CCH 442): > 100 µg/mL; MIC [23]: 0.05 µg/mL
